According to patent US20250313535A1, “ALPHA 4 BETA 7 INTEGRIN MODULATORS AND USES THEREOF” (DICE MOLECULES SV, INC., priority 2022, published 2025):
Like-named read-outs stand apart in the source and are kept apart here.

Legend:
α4β1 integrin = α4β1 integrin (Homo sapiens (Human), UniProt P05556+P13612); assay: Integrin Adhesion Assay: Protocol 5 (VCAM-coated plate, RPMI-8866 cells with stable LOF mutation of the ITGB7 gene); assay type: cell-based
Outline: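 RPMI-8866 B cells with CRISPR/Cas9 ITGB7 knockout (clonal, verified by flow cytometry) adhered to VCAM-coated wells for 1 h at 37° C in HEPES/NaCl buffer with 1 mM MnCl2, 0.1 mM CaCl2, 1% BSA, 1% DMSO. Bound cells quantified by CellTiter-Glo luminescence after washing; % inhibition versus DMSO and control, 4-parameter fit.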

α4β7 integrin = α4β7 integrin (Homo sapiens (Human), UniProt P13612+P26010); assay: Integrin Adhesion Assay: Protocol 4 (MAdCAM-coated plate, RPMI-8866 cells with stable LOF mutation of the ITGB1 gene); assay type: cell-based
Outline: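 RPMI-8866 cells with CRISPR/Cas9 knockout of ITGB1 (2×10^6/mL) were added to MAdCAM-coated wells with compound (1% DMSO) in HEPES/NaCl buffer with 1 mM MnCl2, 0.1 mM CaCl2 and 1% BSA, then incubated 1 h at 37 °C. After four washes, adherent cells were quantified by CellTiter-Glo luminescence. Percent inhibition versus DMSO and control compound was fitted to 4-parameter curves.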

[1] = Protocol 5, RPMI-8866 cells with LOF mutation of ITGB7, VCAM, read-out: Mean IC50 α4β1 KO
[2] = Protocol 4, RPMI-8866 cells with LOF mutation of ITGB1, MAdCAM, read-out: Mean IC50 α4β7 KO
[3] = RPMI-8866 cells with stable LOF mutation of the ITGB7 gene, read-out: Mean IC50 α4β1 KO^b
[4] = RPMI-8866 cells with stable LOF mutation of the ITGB1 gene, read-out: Mean IC50 α4β7 KO^a

Sequence of α4β7 integrin (P13612 34-1032): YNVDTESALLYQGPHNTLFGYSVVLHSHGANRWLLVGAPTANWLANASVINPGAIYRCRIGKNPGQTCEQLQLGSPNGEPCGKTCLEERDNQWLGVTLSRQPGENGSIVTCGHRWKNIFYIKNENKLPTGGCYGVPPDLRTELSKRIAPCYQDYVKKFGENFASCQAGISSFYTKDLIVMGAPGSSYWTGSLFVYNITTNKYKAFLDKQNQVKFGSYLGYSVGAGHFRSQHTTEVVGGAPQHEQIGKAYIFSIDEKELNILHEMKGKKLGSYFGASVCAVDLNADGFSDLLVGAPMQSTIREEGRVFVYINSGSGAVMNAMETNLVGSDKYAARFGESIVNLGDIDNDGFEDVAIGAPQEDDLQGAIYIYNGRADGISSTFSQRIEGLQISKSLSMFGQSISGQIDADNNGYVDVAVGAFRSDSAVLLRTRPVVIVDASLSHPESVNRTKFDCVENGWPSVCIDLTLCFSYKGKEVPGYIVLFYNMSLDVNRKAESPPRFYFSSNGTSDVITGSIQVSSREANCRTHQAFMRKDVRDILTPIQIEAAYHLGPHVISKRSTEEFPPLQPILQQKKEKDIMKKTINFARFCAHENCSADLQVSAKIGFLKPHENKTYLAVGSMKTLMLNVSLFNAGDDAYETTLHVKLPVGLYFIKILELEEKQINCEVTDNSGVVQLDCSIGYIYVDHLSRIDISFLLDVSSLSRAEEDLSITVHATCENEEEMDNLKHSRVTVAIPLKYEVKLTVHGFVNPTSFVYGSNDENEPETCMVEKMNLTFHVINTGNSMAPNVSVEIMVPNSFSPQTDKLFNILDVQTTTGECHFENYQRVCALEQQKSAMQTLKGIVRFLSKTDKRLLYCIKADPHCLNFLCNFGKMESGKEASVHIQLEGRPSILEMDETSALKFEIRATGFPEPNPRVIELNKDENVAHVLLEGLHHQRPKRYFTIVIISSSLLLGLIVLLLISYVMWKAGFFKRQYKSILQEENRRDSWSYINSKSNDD
Sequence of α4β7 integrin (P26010 20-798): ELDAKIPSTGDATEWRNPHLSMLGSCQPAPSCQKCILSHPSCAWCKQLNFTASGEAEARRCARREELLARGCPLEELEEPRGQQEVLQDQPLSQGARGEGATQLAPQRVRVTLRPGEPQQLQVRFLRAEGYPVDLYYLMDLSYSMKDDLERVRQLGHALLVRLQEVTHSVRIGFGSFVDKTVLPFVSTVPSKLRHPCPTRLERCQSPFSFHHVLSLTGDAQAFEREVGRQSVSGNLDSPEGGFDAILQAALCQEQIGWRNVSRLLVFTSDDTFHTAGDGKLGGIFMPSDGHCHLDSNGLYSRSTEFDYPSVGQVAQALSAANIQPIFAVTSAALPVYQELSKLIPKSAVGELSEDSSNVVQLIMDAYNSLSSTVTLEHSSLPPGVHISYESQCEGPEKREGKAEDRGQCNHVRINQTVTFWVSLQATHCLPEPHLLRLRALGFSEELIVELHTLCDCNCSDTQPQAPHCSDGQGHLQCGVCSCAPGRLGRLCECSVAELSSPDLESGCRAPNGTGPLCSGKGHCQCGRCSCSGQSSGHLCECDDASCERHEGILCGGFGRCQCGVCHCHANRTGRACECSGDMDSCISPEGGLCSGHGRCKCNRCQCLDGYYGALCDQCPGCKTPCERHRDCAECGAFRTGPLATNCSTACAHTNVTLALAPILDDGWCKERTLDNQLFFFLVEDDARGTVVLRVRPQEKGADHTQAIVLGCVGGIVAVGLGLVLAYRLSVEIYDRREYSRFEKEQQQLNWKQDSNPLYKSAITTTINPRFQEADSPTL
Sequence of α4β1 integrin (P13612 34-1032): as the sequence (P13612 34-1032) above
Sequence of α4β1 integrin (P05556 21-798): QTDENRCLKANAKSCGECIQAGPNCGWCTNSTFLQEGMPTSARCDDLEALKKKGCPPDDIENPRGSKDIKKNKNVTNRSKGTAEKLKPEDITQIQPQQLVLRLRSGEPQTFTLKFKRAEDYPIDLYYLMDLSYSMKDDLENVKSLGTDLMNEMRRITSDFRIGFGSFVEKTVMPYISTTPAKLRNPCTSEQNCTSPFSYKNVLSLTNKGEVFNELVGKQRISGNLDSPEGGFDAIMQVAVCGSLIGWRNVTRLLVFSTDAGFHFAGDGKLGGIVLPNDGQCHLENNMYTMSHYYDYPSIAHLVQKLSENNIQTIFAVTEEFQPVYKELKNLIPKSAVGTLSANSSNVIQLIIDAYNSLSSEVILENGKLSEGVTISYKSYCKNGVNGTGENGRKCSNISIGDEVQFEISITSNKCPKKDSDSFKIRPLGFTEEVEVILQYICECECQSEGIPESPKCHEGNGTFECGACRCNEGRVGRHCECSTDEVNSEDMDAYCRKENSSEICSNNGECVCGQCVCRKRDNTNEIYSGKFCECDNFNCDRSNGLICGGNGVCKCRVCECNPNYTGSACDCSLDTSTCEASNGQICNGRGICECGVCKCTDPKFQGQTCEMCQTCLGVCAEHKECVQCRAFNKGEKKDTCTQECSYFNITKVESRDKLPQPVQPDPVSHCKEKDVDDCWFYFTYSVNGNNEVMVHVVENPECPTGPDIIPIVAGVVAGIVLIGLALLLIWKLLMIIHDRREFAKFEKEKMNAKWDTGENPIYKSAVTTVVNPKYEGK

SMILES | IC50 (α4β1 integrin; [1]) | IC50 (α4β7 integrin; [2]) | IC50 (α4β1 integrin; [3]) | IC50 (α4β7 integrin; [4])
O=C(O)[C@H](Cc1cccc2c(-c3nccc4ccc(CCCN5CCCCC5)cc34)cccc12)NC(=O)C1(C(F)(F)F)CCN(CC(F)(F)F)CC1 [Compound 725] | > 1000 nM | < 10 nM | – | –
COc1ccc2c(c1-c1cccc3c(C[C@H](NC(=O)C4(C(F)(F)F)CCN(CC(F)(F)F)CC4)C(=O)O)cccc13)CN(CC(F)(F)F)CC2 [Compound 750] | > 1000 nM | 10 to 100 nM | – | –
COc1ccc(CN2CCC(C)(C)CC2)c(C(F)(F)F)c1-c1cccc2c(C[C@H](NC(=O)c3c(C)cccc3F)C(=O)O)cccc12 [Compound 658] | – | – | 100 to 1000 nM | < 10 nM
O=C(O)[C@H](Cc1cccc2c(-c3nccc4c(CN5CCC(F)(F)C5)cccc34)cccc12)NC(=O)C1(C(F)(F)F)CCN(C2COC2)CC1 [Compound 595] | – | – | 100 to 1000 nM | < 10 nM
COC(=O)[C@H](Cc1cccc2c(-c3c(OC)ccc(CN(C)C)c3C(F)(F)F)cccc12)NC(=O)OC(C)(C)C [Compound 551] | – | – | 100 to 1000 nM | < 10 nM
COc1cccc(CCN2CCC(c3ccccc3)CC2)c1-c1cccc2c(C[C@H](NC(=O)C3(C(F)(F)F)CCN(CC(F)(F)F)CC3)C(=O)O)cccc12 [Compound 973] | > 1000 nM | 10 to 100 nM | – | –
COc1ccc2cc(CN3CCCCC3)cnc2c1-c1cccc2c(C[C@H](NC(=O)C3(C(F)(F)F)CCN(CC(F)(F)F)CC3)C(=O)O)cccc12 [Compound 733] | 100 to 1000 nM | 10 to 100 nM | – | –
COc1ccc(CN2CCCC3(CCN(Cc4ccccc4)CC3)C2)c(OC)c1-c1cccc2c(C[C@H](NC(=O)C3(C(F)(F)F)CCN(CC(F)(F)F)CC3)C(=O)O)cccc12 [Compound 809] | 100 to 1000 nM | < 10 nM | – | –
Cn1c(=O)c(-c2cccc3c(C[C@H](NC(=O)C4(C(F)(F)F)CCN([C@H](C5CC5)C(F)(F)F)CC4)C(=O)O)cccc23)c(C(F)(F)F)c2ccccc21 [Compound 485] | – | – | > 1000 nM | > 1000 nM
O=C(O)[C@H](Cc1cccc2c(-c3ncc(CN4CCOCC45CC5)c4ccccc34)cccc12)NC(=O)C1(C(F)(F)F)CCN(CC(F)(F)F)CC1 [Compound 870] | > 1000 nM | < 10 nM | – | –
COc1ccc(CN2CCC3(CCOC3)CC2)c(OC)c1-c1cccc2c(C[C@H](NC(=O)c3c(C)cccc3F)C(=O)O)cccc12 [Compound 655] | – | – | > 1000 nM | < 10 nM
CC1OCC1N1CCC(C(=O)N[C@@H](Cc2cccc3c(-c4c(C(F)(F)F)c5ccccc5n(C)c4=O)cccc23)C(=O)O)(C(F)(F)F)CC1 (stereo partly drawn) [Compound 510] | – | – | 100 to 1000 nM | < 10 nM
COc1cc(CN2CCCCC2)cc(Cl)c1-c1cccc2c(C[C@H](NC(=O)C3(C(F)(F)F)CCN(CC(F)(F)F)CC3)C(=O)O)cccc12 [Compound 804] | 100 to 1000 nM | < 10 nM | – | –
CN(C)Cc1cc(-c2cccc3c(C[C@H](NC(=O)C4(C(F)(F)F)CCN(CC(F)(F)F)CC4)C(=O)O)cccc23)c2cnccc2c1 [Compound 618] | – | – | > 1000 nM | 10 to 100 nM
COc1cnc(CN2CCC(C)C(F)(F)CC2)cc1-c1cccc2c(C[C@H](NC(=O)C3(C(F)(F)F)CCN(CC(F)(F)F)CC3)C(=O)O)cccc12 (stereo partly drawn) [Compound 843] | > 1000 nM | < 10 nM | – | –
CN(C)Cc1cc(-c2cccc3c(C[C@H](NC(=O)c4c(F)cc(N5CCOC[C@@H]5C(F)(F)F)cc4CN4CCCC4)C(=O)O)cccc23)c2cnccc2c1 [Compound 587] | – | – | > 1000 nM | < 10 nM
COc1ccc(CN2CCN(Cc3ccc(C(F)(F)F)cc3)CC2)c(OC)c1-c1cccc2c(C[C@H](NC(=O)C3(C(F)(F)F)CCN(CC(F)(F)F)CC3)C(=O)O)cccc12 [Compound 806] | > 1000 nM | 10 to 100 nM | – | –
COc1cncc(OC)c1-c1cccc2c(C[C@H](NC(=O)C3(C(F)(F)F)CCN(CC(F)(F)F)CC3)C(=O)O)cccc12 [Compound 734] | 100 to 1000 nM | < 10 nM | – | –
O=C(O)[C@H](Cc1cccc2c(-c3ncc(CN4CCC(C(F)(F)F)CC4)c4ccccc34)cccc12)NC(=O)C1(C(F)(F)F)CCN(CC(F)F)CC1 [Compound 879] | > 1000 nM | 10 to 100 nM | – | –
COc1ccc(CN2CCC(F)(F)CC2)c(OC)c1-c1cccc2c(C[C@H](NC(=O)C3(C(F)(F)F)CCN(CC(F)F)CC3)C(=O)O)cccc12 [Compound 946] | 100 to 1000 nM | 10 to 100 nM | – | –

SMILES | IC50 (α4β1 integrin; [1]) | IC50 (α4β7 integrin; [2]) | IC50 (α4β1 integrin; [3]) | IC50 (α4β7 integrin; [4])
COc1ccc(CN2CCCC(F)(F)C2)c(OC)c1-c1cccc2c(C[C@H](NC(=O)C3(C(F)(F)F)CCN(CC(F)(F)F)CC3)C(=O)O)cccc12 [Compound 825] | > 1000 nM | 10 to 100 nM | – | –
Cc1cc(CN2CCCCC2)cnc1-c1cccc2c(C[C@H](NC(=O)C3(C(F)(F)F)CCN(CC(F)F)CC3)C(=O)O)cccc12 [Compound 721] | > 1000 nM | 10 to 100 nM | – | –
COc1c(-c2cccc3c(C[C@H](NC(=O)C4(C(F)(F)F)CCN(CC(F)(F)F)CC4)C(=O)O)cccc23)c(=O)n(C)c2ccccc12 [Compound 739] | > 1000 nM | 10 to 100 nM | – | –
COc1cccc(CCN2CCC(F)(F)CC2)c1-c1cccc2c(C[C@H](NC(=O)C3(C(F)(F)F)CCN(CC(F)(F)F)CC3)C(=O)O)cccc12 [Compound 974] | > 1000 nM | 10 to 100 nM | – | –
Cn1c(=O)c(-c2cccc3c(C[C@H](NC(=O)C4(C(F)(F)F)CCN(C5CCOC5(C)C)CC4)C(=O)O)cccc23)c(C(F)(F)F)c2ccccc21 (stereo partly drawn) [Compound 508] | – | – | 100 to 1000 nM | 10 to 100 nM
Cn1c(=O)c(-c2cccc3c(C[C@H](NC(=O)C4(C(F)(F)F)CCN(C5CCOCC5)CC4)C(=O)O)cccc23)c(C(F)(F)F)c2ccccc21 [Compound 504] | – | – | > 1000 nM | 10 to 100 nM
O=C(O)[C@H](Cc1cccc2c(-c3ncc(C(=O)N4CCN(C5CC5)CC4)c4ccccc34)cccc12)NC(=O)C1(C(F)(F)F)CCN(CC(F)F)CC1 [Compound 763] | > 1000 nM | 10 to 100 nM | – | –
COc1ccc(CN2C(C)CCCC2C)c(OC)c1-c1cccc2c(C[C@H](NC(=O)c3c(C)cccc3F)C(=O)O)cccc12 (stereo partly drawn) [Compound 632] | – | – | 100 to 1000 nM | < 10 nM
COc1ccc(CN2CCCC(C)(C)C2)c(OC)c1-c1cccc2c(C[C@H](NC(=O)c3c(C)cccc3F)C(=O)O)cccc12 [Compound 565] | – | – | 100 to 1000 nM | < 10 nM
CN(C)Cc1cccc2c(-c3cccc4c(C[C@H](NC(=O)C5(C(F)(F)F)CCN([C@@H]6CCOC6)CC5)C(=O)O)cccc34)nccc12 [Compound 592] | – | – | > 1000 nM | < 10 nM
COc1ccc(CN2CCCCC2)c(OC)c1-c1cccc2c(C[C@H](NC(=O)C3(C(F)(F)F)CCN(CC(F)(F)F)CC3)C(=O)O)cccc12 [Compound 784] | 100 to 1000 nM | < 10 nM | – | –
COc1ccc(CN(C)C)c(C)c1-c1cccc2c(C[C@H](NC(=O)c3c(C)cccc3F)C(=O)O)cccc12 [Compound 558] | – | – | 100 to 1000 nM | < 10 nM
COc1ccc(CN2CCC[C@H](F)C2)c(OC)c1-c1cccc2c(C[C@H](NC(=O)C3(C(F)(F)F)CCN(CC(F)(F)F)CC3)C(=O)O)cccc12 [Compound 842] | 100 to 1000 nM | < 10 nM | – | –
Cn1c(=O)c(-c2cccc3c(C[C@H](NC(=O)C4(C(F)(F)F)CCN([C@@H]5CCC(F)(F)C5)CC4)C(=O)O)cccc23)c(C(F)(F)F)c2ccccc21 [Compound 494] | – | – | 100 to 1000 nM | 10 to 100 nM
CN(C)Cc1cccc2c(-c3cccc4c(C[C@H](NC(=O)C5(C(F)(F)F)CCN(CC(F)(F)F)CC5)C(=O)O)cccc34)nccc12 [Compound 421] | – | – | > 1000 nM | < 10 nM
CCOCc1cc(OC)c(-c2cccc3c(C[C@H](NC(=O)C4(C(F)(F)F)CCN(C5COC5)CC4)C(=O)O)cccc23)c(OC)c1 [Compound 498] | – | – | 100 to 1000 nM | < 10 nM
CN(C)Cc1cnc(-c2cccc3c(C[C@H](NC(=O)C4(C(F)(F)F)CCN(CC(F)(F)F)CC4)C(=O)O)cccc23)c2ccccc12 [Compound 921] | 100 to 1000 nM | < 10 nM | – | –
COc1cccc(CCN2CCC[C@H](F)C2)c1-c1cccc2c(C[C@H](NC(=O)C3(C(F)(F)F)CCN(CC(F)F)CC3)C(=O)O)cccc12 [Compound 969] | > 1000 nM | < 10 nM | – | –
CC1(C(=O)N[C@@H](Cc2cccc3c(-c4ncc(CN5CCCCC5)c5ccccc45)cccc23)C(=O)O)CC2CCC(C1)N2CC(F)F (stereo partly drawn) [Compound 684] | – | – | > 1000 nM | 10 to 100 nM
